Measured values from BindingDB's records for patent WO2022104348 (Janssen Pharmaceutica, 2022).

Biological target: Mitogen-activated protein kinase kinase kinase 14 (Homo sapiens, UniProt Q99558)
Experiment: Inhibition of auto-phosphorylation of recombinant human NF-kappaB-inducing kinase (NIK/MAP3K14) activity
Protocol: NIK/MAP3K14 auto-phosphorylation activity was measured using the AlphaScreen (ascreen) format (Perkin Elmer). All compound6 tested were dissolved in dimethyl sulfoxide (DMSO) and further dilutions were made in assay buffer. The final DMSO concentration was 0.7% (v/v) in assays. The assay buffer was 50 mM Tris pH 7.5 containing 1 mM EGTA (ethylene glycol tetraacetic acid), 1 mM DTT (dithiothreitol), 0.1 mM NasVCO4, 5 mM MgCE, and 0.01 % Tween 20. The assays were carried out in 384 well Proxiplates (Perkin Elmer). The incubations consisted of the compound, […] Adenosine-5'-triphosphate (ATP), and 1 nM NIK/MAP3K14. Incubations were initiated by the addition of GST-tagged NIK/MAP3K14 enzyme, carried out for 2 h at 25 °C and terminated by addition of stop buffer containing anti-phospho-IKK Ser176/180 antibody. Protein A Acceptor and Glutathione-Donor bead6 were added before reading using an EnVision Multilabel Plate Reader (Perkin Elmer). The signal obtained in the wells was normalized using high (full enzyme activity, 0.7% DMSO) and low controls (no enzyme activity, 0.7% DMSO, no ATP). IC50 s were determined by fitting a sigmoidal curve to % inhibition of control versus Log compound concentration.

Mitogen-activated protein kinase kinase kinase 14, sequence (Q99558 whole entry): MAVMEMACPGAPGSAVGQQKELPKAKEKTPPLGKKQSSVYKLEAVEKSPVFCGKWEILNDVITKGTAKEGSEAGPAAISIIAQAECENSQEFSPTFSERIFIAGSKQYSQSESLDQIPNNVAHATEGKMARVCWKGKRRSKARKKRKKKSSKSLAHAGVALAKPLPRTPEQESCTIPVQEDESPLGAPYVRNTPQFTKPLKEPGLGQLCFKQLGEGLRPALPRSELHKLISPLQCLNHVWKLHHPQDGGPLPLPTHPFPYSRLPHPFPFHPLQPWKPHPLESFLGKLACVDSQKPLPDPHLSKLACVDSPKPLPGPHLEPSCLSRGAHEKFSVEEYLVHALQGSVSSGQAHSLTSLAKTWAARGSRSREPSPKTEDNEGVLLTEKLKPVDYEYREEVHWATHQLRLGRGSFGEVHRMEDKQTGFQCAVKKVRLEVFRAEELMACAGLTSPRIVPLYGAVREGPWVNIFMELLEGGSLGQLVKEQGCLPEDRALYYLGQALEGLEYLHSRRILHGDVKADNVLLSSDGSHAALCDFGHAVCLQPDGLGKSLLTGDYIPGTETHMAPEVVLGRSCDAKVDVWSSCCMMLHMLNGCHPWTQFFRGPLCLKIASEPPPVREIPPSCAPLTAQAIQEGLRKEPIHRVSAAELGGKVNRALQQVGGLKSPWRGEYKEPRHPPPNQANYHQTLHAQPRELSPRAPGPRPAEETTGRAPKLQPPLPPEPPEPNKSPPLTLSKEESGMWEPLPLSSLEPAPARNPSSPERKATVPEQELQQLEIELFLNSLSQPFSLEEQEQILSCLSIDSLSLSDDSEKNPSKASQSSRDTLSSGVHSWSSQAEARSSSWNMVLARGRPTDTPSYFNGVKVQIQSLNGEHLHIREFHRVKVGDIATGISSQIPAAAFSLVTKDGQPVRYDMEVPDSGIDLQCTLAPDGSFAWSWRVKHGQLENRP

Structure (SMILES) | IC50 [nM]
CN1CC[C@@](O)(c2cccc(-n3cc(-c4c[nH]c5ncccc45)nn3)c2)C1=O [WO2022104348, Example 123] | > 500
CN1CC[C@@](O)(c2cccc(-n3ncc(-c4c[nH]c5ncccc45)n3)c2)C1=O [WO2022104348, Example 109] | < 100
CN1CC[C@](O)(c2cccc(-c3cnc(-c4c[nH]c5ncccc45)s3)c2)C1=O [WO2022104348, Example 4] | > 500
CN1CC[C@@](O)(c2cccc(-c3cc(-c4c[nH]c5ncccc45)co3)c2)C1=O [WO2022104348, Example 115] | > 500
CC1(C)Cc2cccnc2[C@]1(O)c1cccc(-c2csc(-c3c[nH]c4ncccc34)n2)c1 [WO2022104348, Example 36] | < 100
CN1CC[C@@](O)(c2cccc(-c3nc(-c4c[nH]c5ncccc45)cs3)c2)C1=O [WO2022104348, Example 8] | < 100
O[C@@]1(c2cccc(-c3csc(-c4c[nH]c5ncc(Cl)c(F)c45)n3)c2)CCn2ccnc21 [WO2022104348, Example 97] | < 100
O[C@H]1C[C@@](O)(c2cccc(-c3csc(-c4c[nH]c5ncccc45)n3)c2)c2ncccc21 [WO2022104348, Example 103] | > 500
CN1CC[C@@](O)(c2cccc(-n3ccc(-c4c[nH]c5ncccc45)n3)c2)C1=O [WO2022104348, Example 122] | < 100
Cc1ccnc2[nH]cc(-c3nc(-c4cccc([C@]5(O)CCn6ccnc65)c4)cs3)c12 [WO2022104348, Example 87] | < 100
O[C@]1(c2cccc(-c3csc(-c4c[nH]c5ncccc45)n3)c2)CCCn2ccnc21 [WO2022104348, Example 37] | > 500
C[C@]1(O)C[C@](O)(c2cccc(-c3csc(-c4c[nH]c5ncccc45)n3)c2)c2ncccc21 [WO2022104348, Example 105] | > 500
O=C1Nc2cccnc2[C@@]1(O)c1cccc(-c2csc(-c3c[nH]c4ncccc34)n2)c1 [WO2022104348, Example 90] | > 500
CN1CC[C@@](O)(c2cccc(-c3nc(-c4cc(N)nc5[nH]ccc45)cs3)c2)C1=O [WO2022104348, Example 129] | > 500
Cc1cnc2c(-c3nc(-c4cccc([C@]5(O)CCn6ccnc65)c4)cs3)c[nH]c2n1 [WO2022104348, Example 83] | < 100
O=C1Nc2cccnc2[C@]1(O)c1cccc(-c2csc(-c3c[nH]c4ncccc34)n2)c1 [WO2022104348, Example 89] | > 500
O[C@]1(c2cccc(-c3csc(-c4c[nH]c5ncccc45)n3)c2)C=Cc2cccnc21 [WO2022104348, Example 34] | > 500
CN1CC[C@@](O)(c2cccc(-c3csc(-c4c[nH]c5ncc(Cl)c(F)c45)n3)c2)C1=O [WO2022104348, Example 95] | < 100
CN1CC[C@@](O)(c2cccc(-c3csc(-n4ccc5nc(N)ccc54)n3)c2)C1=O [WO2022104348, Example 112] | > 500
CN1CC[C@@](O)(c2cccc(-c3ccc(-c4c[nH]c5ncccc45)o3)c2)C1=O [WO2022104348, Example 114] | < 100
CN1C[C@@](O)(c2cccc(-c3csc(-c4c[nH]c5nccnc45)n3)c2)C1=O [WO2022104348, Example 45] | > 500

Structure (SMILES) | IC50 [nM]
CN1CC[C@@](O)(c2cccc(-c3csc(-c4c[nH]c5ncc(C(=O)O)cc45)n3)c2)C1=O [WO2022104348, Example 51] | < 100
O[C@]1(c2cccc(-c3csc(-c4c[nH]c5nccnc45)n3)c2)OCc2cccnc21 [WO2022104348, Example 17] | < 100
CN1CC[C@@](O)(c2cccc(-c3nc(-c4c[nH]c5ncccc45)sc3C#N)c2)C1=O [WO2022104348, Example 98] | > 500
Cc1ccc(-c2csc(-c3c[nH]c4nccnc34)n2)cc1[C@@]1(O)CCN(C)C1=O [WO2022104348, Example 70] | > 500
O[C@]1(c2cccc(-c3csc(-c4c[nH]c5ncccc45)n3)c2)Cc2nccn2C1 [WO2022104348, Example 10] | < 100
O[C@@]1(c2cccc(-c3csc(-c4c[nH]c5nccnc45)n3)c2)COc2cccnc21 [WO2022104348, Example 86] | > 500
O[C@@]1(c2cccc(-c3csc(-c4c[nH]c5ncccc45)n3)c2)CCc2scnc21 [WO2022104348, Example 32] | < 100
CN1CC[C@@](O)(c2cccc(-c3csc(-c4n[nH]c5ncccc45)n3)c2)C1=O [WO2022104348, Example 100] | > 500
C[C@@]1(O)C[C@@](O)(c2cccc(-c3csc(-c4c[nH]c5ncccc45)n3)c2)c2ncccc21 [WO2022104348, Example 106] | > 500
O[C@@H]1C[C@](O)(c2cccc(-c3csc(-c4c[nH]c5ncccc45)n3)c2)c2ncccc21 [WO2022104348, Example 104] | > 500
O=C1N(CC(F)(F)F)CC[C@@]1(O)c1cccc(-c2csc(-c3c[nH]c4nccnc34)n2)c1 [WO2022104348, Example 44] | > 500
CN1C(=O)[C@@](O)(c2cccc(-c3csc(-c4c[nH]c5ncccc45)n3)c2)c2ncccc21 [WO2022104348, Example 91] | > 500
O[C@@]1(c2cccc(-c3csc(-c4c[nH]c5ncccc45)n3)c2)C=Cc2cccnc21 [WO2022104348, Example 33] | < 100
O[C@@]1(c2cccc(-c3csc(-c4c[nH]c5ncc(F)c(F)c45)n3)c2)CCn2ccnc21 [WO2022104348, Example 96] | < 100
N#Cc1cnc2[nH]cc(-c3nc(-c4cccc([C@]5(O)Cc6nccn6C5)c4)cs3)c2c1 [WO2022104348, Example 26] | < 100
O[C@@]1(c2cccc(-c3csc(-c4c[nH]c5nccnc45)n3)c2)CCn2ccnc21 [WO2022104348, Example 41] | < 100
Cc1c(-c2c[nH]c3ncccc23)n[nH]c1-c1cccc([C@]2(O)CCN(C)C2=O)c1 [WO2022104348, Example 119] | > 500
CN1CC[C@@](O)(c2cccc(-c3csc(-c4c[nH]c5ncccc45)n3)c2)C1=O [WO2022104348, Example 40] | < 100
Cc1sc(-c2c[nH]c3nccnc23)nc1-c1cccc([C@]2(O)CCN(C)C2=O)c1 [WO2022104348, Example 66] | < 100
CN1CC[C@@](O)(c2cccc(-n3cnc(-c4c[nH]c5ncccc45)c3)c2)C1=O [WO2022104348, Example 124] | > 500
O[C@@]1(c2cccc(-c3csc(-c4c[nH]c5ncccc45)n3)c2)CCCn2ccnc21 [WO2022104348, Example 38] | < 100

Structure (SMILES) | IC50 [nM]
O[C@@]1(c2cccc(-c3csc(-c4c[nH]c5ncccc45)n3)c2)COc2cccnc21 [WO2022104348, Example 85] | > 500
CN1CC[C@@](O)(c2cccc(-c3nc(-c4c[nH]c5ncccc45)sc3CO)c2)C1=O [WO2022104348, Example 50] | < 100
O[C@@]1(c2cccc(-c3csc(-c4c[nH]c5nnccc45)n3)c2)CCn2ccnc21 [WO2022104348, Example 88] | < 100
CN1C[C@](O)(c2cccc(-c3csc(-c4c[nH]c5nccnc45)n3)c2)C1=O [WO2022104348, Example 46] | > 500
Cc1cnc2[nH]cc(-c3nc(-c4cccc([C@@]5(O)CCn6ccnc65)c4)cs3)c2n1 [WO2022104348, Example 81] | < 100
O[C@@]1(c2cccc(-c3csc(-c4n[nH]c5cccnc45)n3)c2)CCn2ccnc21 [WO2022104348, Example 75] | ≤ 500
O[C@@]1(c2cccc(-c3csc(-c4c[nH]c5ncccc45)n3)c2)CCc2cccnc21 [WO2022104348, Example 2] | < 100
Cn1ccnc1[C@@](C)(O)c1cccc(-c2csc(-c3c[nH]c4ncccc34)n2)c1 [WO2022104348, Example 79] | > 500
COc1cnc2[nH]cc(-c3nc(-c4cccc([C@]5(O)CCN(C)C5=O)c4)cs3)c2c1 [WO2022104348, Example 49] | < 100
CN1CCC[C@](O)(c2cccc(-c3csc(-c4c[nH]c5nccnc45)n3)c2)C1=O [WO2022104348, Example 55] | > 500
C[C@](O)(c1cccc(-c2csc(-c3c[nH]c4nccnc34)n2)c1)c1ncc[nH]1 [WO2022104348, Example 78] | > 500
CN1CC[C@@](O)(c2cccc(-c3nc(-c4c[nH]c5ncccc45)sc3F)c2)C1=O [WO2022104348, Example 99] | < 100
Cc1cc(-c2csc(-c3c[nH]c4nccnc34)n2)cc([C@]2(O)CCN(C)C2=O)c1 [WO2022104348, Example 68] | < 100
CN1CC[C@@](O)(c2cccc(-c3coc(-c4c[nH]c5ncccc45)n3)c2)C1=O [WO2022104348, Example 116] | < 100
O[C@@]1(c2cccc(-c3csc(-c4c[nH]c5ncc(Cl)cc45)n3)c2)Cc2nccn2C1 [WO2022104348, Example 27] | < 100
O[C@]1(c2cccc(-c3csc(-c4c[nH]c5ncccc45)n3)c2)CCc2cccnc21 [WO2022104348, Example 1] | > 500
CN1CC[C@@](O)(c2cccc(-c3nc(-c4ccnc5[nH]ccc45)cs3)c2)C1=O [WO2022104348, Example 127] | < 100
CN1CC[C@@](O)(c2cccc(-c3coc(-c4c[nH]c5ncccc45)c3)c2)C1=O [WO2022104348, Example 93] | < 100
Cc1noc2c1CC[C@@]2(O)c1cccc(-c2csc(-c3c[nH]c4ncccc34)n2)c1 [WO2022104348, Example 126] | < 100
